From US4301313A, “Halogenated ethynyl biphenyls” (Eli-Lilly and Company, priority 1974, dated 1981)
Where “and” joins values, the source holds several entries; their conditions need not be identical. Equal entries are not always repeated.

Tests used:
[1] = adjuvant-induced arthritis test (paw volume); assay type: in vivo, rat (male albino); settings: rat, oral
[2] = ultraviolet-induced erythema test, topical application in alcohol solution; assay type: in vivo, guinea pig; settings: for Erythemic score, 1 Hr. after U.V. exposure / Erythemic score, 1.5 Hr. after U.V. exposure / Erythemic score, 2 Hr. after U.V. exposure / Erythemic score, 2.5 Hr. after U.V. exposure: unweighted; for Total erythemic score: control 78
Description: The compounds of the present invention were evaluated for anti-inflammatoryactivity by the ultraviolet-induced erythema blocking test. The test procedures were a modification of the Winder method (Winder, C. V.; Wax, J.; Burr, V.; Been, M.; and Posiere, C. E.: A Study of Pharmacological Influences on Ultraviolet Erythema in Guinea Pigs. Arch. Int. Pharmacodyn. 116: 261, 1958). Male albino guinea pigs weighing 240-300 gm. were used. The hair on the back was clipped and chemically depilated 15-18 hours before each experiment. The animals were fasted overnight, and on the day of the experiment, were randomized and placed in clear plastic partitioned holders 10×20 cm. wide and 15 cm. high.
The source of ultraviolet light was a Hanovia lamp (Kromayer-Model 10). A notebook reinforcement ring was placed upon the lens of the lamp to provide an area of contrast for grading purposes. The lens was then placed in contact with the skin of the guinea pig's back. Exposure time to UV was for a period of 4 seconds. Beginning one hour after exposure and thereafter at half-hour intervals for another 11/2 hours, the degree of resulting erythema was graded by an arbitrary scoring system based upon the degree of contrast and redness formed. Anti-inflammatory agents delay the development of the erythema and have their greatest effect at the initial grading periods. The scores were, therefore, weighted by factors of 4, 3, 2, and 1 at the 1.0, 1.5, 2.0, and 2.5 hour scoring times, respectively. The erythema was graded as follows:
Total scores from each treatment group of four guinea pigs were compared to the scores of the control group. The percent inhibition was calculated as follows: [formula] In the case of compounds showing inhibition, retesting was carried out at a plurality of doses to enable calculation of an ED50 for each such compound. "ED50 " designates that dose which provides 50% inhibition. Calculation of the ED50 was either by a standard linear regression method or by estimation from a dose-response curve of three or more points. The compounds so tested and their ED50 s were as follows:
(4-(2-Fluorophenyl)phenyl)acetylene was also evaluated for anti-inflammatory effect when applied topically. The test procedures were the same as those reported in Examples 29-52 except for three differences: the compound was applied topically in an alcohol solution immediately after exposure to the ultraviolet; scores were not weighted; and results were recorded only as percent inhibition.

[3] = antipyretic effect in yeast-induced fever; assay type: in vivo, rat
Description: (4-(2-Fluorophenyl)phenyl)acetylene was evaluated for antipyretic effect in rats. Fever was induced by subcutaneous injection of yeast, a technique reported at 54 J. Pharm. Exp. Ther. 346 (1935). A total of 24 rats was employed, divided into 6 treatment groups. One group was a normal control, without even the yeast injection. A second group served as a yeast control, receiving yeast injection but none of the test compound. All of the remaining groups received the test compound, in the following pattern: no yeast+100 mg./kg. of compound yeast+100 mg./kg. of compound yeast+50 mg./kg. of compound yeast+10 mg./kg. of compound The procedure was that yeast was administered to all rats at the same time, and temperatures were ascertained two hours later, at which time the test compound was administered to those groups assigned to receive it. Temperatures of all animals were also recorded thereafter at 1.0, 1.5, 2.0, 2.5, and 3.0 hours following administration of the test compound.

[4] = carrageenin-induced hind paw inflammation; assay type: in vivo; settings: Rattus norvegicus
Description: (§1) Representative compounds were also evaluated for anti-inflammatory activity in the test method described by C. A. Winter at 111 Proc. Soc. Exp. Biol. Med., 544 (1962). In this method, inflammation is created by injecting carrageenin into the hind paw of rats. Test compounds are administered prior to injection to determine percent inhibition of the subsequent inflammation, in comparison with control animals.

[5] = control of inflammation in dogs (ultraviolet-induced erythema, abdominal skin); assay type: in vivo, dog
Description: (4-(2-Fluorophenyl)phenyl)acetylene was also evaluated for the control of inflammation in dogs. The testing procedures were the same as reported in the preceding examples except for these differences: a 10-second exposure time was used; non-pigmented abdominal skin was used; and the observed erythema was graded every half hour over a three-hour period with no weighting of scores. A placebo control was run with the same test dogs on the day prior to treatment.

[6] = carrageenin induced test, compound administered about 20 hours prior; assay type: in vivo; settings: rat, dose 10 (unit not given), about 20 hours prior to test
Description: as §1
Each of 4-biphenylylacetylene and (4-(2-fluorophenyl)phenyl)acetylene was evaluated again in the carrageenin induced test method reported in Examples 60-80. However, in these tests, the compound was administered about 20 hours prior to the test procedures.

C#Cc1ccc(-c2ccccc2F)cc1 [(4-(2-fluorophenyl)phenyl)acetylene]
Percent Inhibition of Volume Increase, Day 7 ([1]; dose 1 (unit not given)): 27% and 22%
Percent Inhibition of Volume Increase, Day 7 ([1]; dose 3 (unit not given)): 35% and 29%
Percent Inhibition of Volume Increase, Day 7 ([1]; dose 10 (unit not given)): 30% and 23%
Percent Inhibition of Volume Increase, Day 14 ([1]; dose 10 (unit not given), Day 14): 5% and 0%
% Inhibition ([2]; 1 μg applied): 28%
Erythemic score, 1 Hr. after U.V. exposure ([2]; 1 μg applied): 6
Erythemic score, 1.5 Hr. after U.V. exposure ([2]; 1 μg applied): 13
Erythemic score, 2 Hr. after U.V. exposure ([2]; 1 μg applied): 18
Erythemic score, 2.5 Hr. after U.V. exposure ([2]; 1 μg applied): 19
Total erythemic score ([2]; 1 μg applied): 56
% Inhibition ([2]; 10 μg applied): 41%
Erythemic score, 1 Hr. after U.V. exposure ([2]; 10 μg applied): 5
Erythemic score, 1.5 Hr. after U.V. exposure ([2]; 10 μg applied): 10
Erythemic score, 2 Hr. after U.V. exposure ([2]; 10 μg applied): 14
Erythemic score, 2.5 Hr. after U.V. exposure ([2]; 10 μg applied): 17
Total erythemic score ([2]; 10 μg applied): 46
% Inhibition ([2]; 100 μg applied): 83%
Erythemic score, 1 Hr. after U.V. exposure ([2]; 100 μg applied): 0
Erythemic score, 1.5 Hr. after U.V. exposure ([2]; 100 μg applied): 1
Erythemic score, 2 Hr. after U.V. exposure ([2]; 100 μg applied): 4
Erythemic score, 2.5 Hr. after U.V. exposure ([2]; 100 μg applied): 8
Total erythemic score ([2]; 100 μg applied): 13
Temperatures of rats receiving both yeast and test compound ([3]; 10, 50 and 100 mg./kg., all reading times): uniformly lower
Temperature change in rats receiving no yeast injection ([3]; no yeast, 100 mg./kg.): some lowering of temperature occurred
Statistical significance of temperature change in rats receiving no yeast ([3]; no yeast, 100 mg./kg., versus normal control and yeast control groups): not statistically significant
Antipyretic action ([3]; rats, yeast fever, conclusion): exhibited antipyretic action
Statistical significance of temperature differences, 1.5 hour reading ([3]; yeast rats, 50 mg./kg. and 100 mg./kg., 1.5 hour): not statistically significant
Statistical significance of temperature differences, 1.0 hour reading ([3]; yeast rats, all dose levels, 1.0 hour): not statistically significant
Statistical significance of temperature differences, all other doses ([3]; yeast rats, all other doses/readings): statistically significant
inhibition in vivo at 0.3 mg/kg ([4]; 0.3 mg./kg.): 21%
inhibition in vivo at 0.5 mg/kg ([4]; 0.5 mg./kg.): 6%
inhibition in vivo at 1.5 mg/kg ([4]; 1.5 mg./kg.): 29%
inhibition in vivo at 2.5 mg/kg ([4]; 2.5 mg./kg.): 35%
inhibition in vivo at 5 mg/kg ([4]; 5 mg./kg.): 43%
inhibition in vivo at 15 mg/kg ([4]; 15 mg./kg.): 56%
inhibition in vivo at 25 mg/kg ([4]; 25 mg./kg.): 65%
inhibition in vivo at 50 mg/kg ([4]; 50 mg./kg.): 57%
% Erythema Inhibition ([5]; dog No. 04, 5 mg/kg): 100%
Total erythemic score ([5]; dog No. 04, 5 mg/kg, control 15): 0
% Erythema Inhibition ([5]; dog No. 05, 1 mg/kg): 71%
Total erythemic score ([5]; dog No. 05, 1 mg/kg, control 14): 4
% Erythema Inhibition ([5]; dog No. 05, 10 mg/kg): 100%
Total erythemic score ([5]; dog No. 05, 10 mg/kg, control 14): 0
% Inhibition [6]: 42% and 60%
